From publication PMC3914206

What was measured:
Type in all cases: binding
panel of 442 kinases [1] = biological target: T1, panel of 442 kinases (Homo sapiens, UniProt P45984); details: Compound Concentration 10 µM
T1 construct: purchased KINOMEscan
From the text: (§1) We assessed the selectivity of members of this scaffold using the KINOMEscan methodology across a near comprehensive panel of 442 kinases [[18,27]].

panel of 442 kinases [2] = biological target: T2, panel of 442 kinases (Homo sapiens, UniProt P04629); details: kinase TRKA; compound concentration 10 µM
T2 construct: purchased KINOMEscan
From the text: as §1

panel of 442 kinases [3] = biological target: T3, panel of 442 kinases (Homo sapiens, UniProt O43293); details: Compound Concentration 10 µM
T3 construct: purchased KINOMEscan
From the text: as §1

panel of 442 kinases [4] = biological target: T4, panel of 442 kinases (Homo sapiens, UniProt Q9NQU5); details: Compound Concentration 10 µM
T4 construct: purchased KINOMEscan
From the text: as §1

T1 sequence (P45984 whole entry): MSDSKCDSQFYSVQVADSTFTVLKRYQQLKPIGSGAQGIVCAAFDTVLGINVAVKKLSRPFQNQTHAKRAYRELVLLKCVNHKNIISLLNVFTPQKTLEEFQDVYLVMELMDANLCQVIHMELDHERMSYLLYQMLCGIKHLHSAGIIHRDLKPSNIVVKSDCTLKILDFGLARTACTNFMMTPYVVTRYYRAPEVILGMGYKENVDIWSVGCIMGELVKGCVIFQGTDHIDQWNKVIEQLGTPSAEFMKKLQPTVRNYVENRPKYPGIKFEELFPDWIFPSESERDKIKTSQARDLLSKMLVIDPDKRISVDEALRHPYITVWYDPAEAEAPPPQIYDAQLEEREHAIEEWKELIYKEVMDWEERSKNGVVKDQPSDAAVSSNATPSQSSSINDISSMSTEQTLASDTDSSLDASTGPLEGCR
T2 sequence (P04629 33-796): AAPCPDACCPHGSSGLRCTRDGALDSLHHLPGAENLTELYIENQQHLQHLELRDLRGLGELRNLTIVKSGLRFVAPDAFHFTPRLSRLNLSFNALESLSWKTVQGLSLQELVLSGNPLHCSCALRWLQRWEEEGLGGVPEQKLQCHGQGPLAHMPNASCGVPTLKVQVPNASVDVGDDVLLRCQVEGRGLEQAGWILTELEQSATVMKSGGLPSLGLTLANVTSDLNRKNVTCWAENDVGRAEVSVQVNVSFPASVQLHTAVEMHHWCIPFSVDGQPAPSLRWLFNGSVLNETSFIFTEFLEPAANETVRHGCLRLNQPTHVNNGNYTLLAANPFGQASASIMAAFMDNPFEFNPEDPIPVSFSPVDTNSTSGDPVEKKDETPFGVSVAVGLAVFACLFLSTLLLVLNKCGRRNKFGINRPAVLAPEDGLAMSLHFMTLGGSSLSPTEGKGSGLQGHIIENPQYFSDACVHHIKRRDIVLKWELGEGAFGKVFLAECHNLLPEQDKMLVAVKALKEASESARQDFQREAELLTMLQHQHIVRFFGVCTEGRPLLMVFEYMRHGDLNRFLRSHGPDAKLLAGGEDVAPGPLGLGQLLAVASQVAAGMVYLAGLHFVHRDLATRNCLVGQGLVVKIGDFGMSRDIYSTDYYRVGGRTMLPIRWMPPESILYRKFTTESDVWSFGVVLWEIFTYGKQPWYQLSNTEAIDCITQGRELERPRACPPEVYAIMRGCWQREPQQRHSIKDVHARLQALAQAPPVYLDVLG
T4 sequence (Q9NQU5 whole entry): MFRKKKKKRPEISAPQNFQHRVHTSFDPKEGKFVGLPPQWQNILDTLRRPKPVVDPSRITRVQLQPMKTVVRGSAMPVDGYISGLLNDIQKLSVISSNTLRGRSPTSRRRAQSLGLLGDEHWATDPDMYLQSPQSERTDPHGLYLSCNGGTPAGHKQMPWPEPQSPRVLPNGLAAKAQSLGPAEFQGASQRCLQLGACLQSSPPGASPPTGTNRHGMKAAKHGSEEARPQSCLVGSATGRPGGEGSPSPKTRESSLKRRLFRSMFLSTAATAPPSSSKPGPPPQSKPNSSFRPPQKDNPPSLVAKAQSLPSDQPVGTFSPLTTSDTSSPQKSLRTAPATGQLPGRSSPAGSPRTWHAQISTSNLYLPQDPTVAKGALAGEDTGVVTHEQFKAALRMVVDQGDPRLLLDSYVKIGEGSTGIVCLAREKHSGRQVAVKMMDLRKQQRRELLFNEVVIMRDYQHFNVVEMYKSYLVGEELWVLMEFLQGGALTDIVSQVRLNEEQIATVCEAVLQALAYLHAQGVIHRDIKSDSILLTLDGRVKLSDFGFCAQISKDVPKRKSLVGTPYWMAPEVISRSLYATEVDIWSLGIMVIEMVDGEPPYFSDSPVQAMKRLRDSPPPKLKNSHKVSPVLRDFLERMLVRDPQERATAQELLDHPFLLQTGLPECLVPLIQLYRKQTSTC
T3 sequence (O43293 whole entry): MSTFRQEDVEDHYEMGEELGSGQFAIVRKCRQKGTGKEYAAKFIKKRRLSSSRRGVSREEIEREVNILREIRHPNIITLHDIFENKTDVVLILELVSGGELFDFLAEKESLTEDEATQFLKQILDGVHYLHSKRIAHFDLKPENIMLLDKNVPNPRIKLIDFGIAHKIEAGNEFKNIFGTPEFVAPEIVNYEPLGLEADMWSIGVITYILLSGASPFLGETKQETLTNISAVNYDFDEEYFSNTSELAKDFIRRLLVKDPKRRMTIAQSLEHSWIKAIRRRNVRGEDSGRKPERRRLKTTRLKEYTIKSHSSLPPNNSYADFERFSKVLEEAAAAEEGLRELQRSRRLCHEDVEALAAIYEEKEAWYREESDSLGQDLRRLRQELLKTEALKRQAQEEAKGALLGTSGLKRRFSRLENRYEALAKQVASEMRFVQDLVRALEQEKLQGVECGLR

Row | Structure (SMILES) | KINOMEscan: JNK2 (panel of 442 kinases [1]) | % Ctrl, TRKA (panel of 442 kinases [2]) [% Ctrl] | KINOMEscan: DAPK3 (panel of 442 kinases [3]) | KINOMEscan: PAK6 (panel of 442 kinases [4])
1 | COc1cc(C(=O)N2CCC(N3CCN(C)CC3)CC2)ccc1Nc1ncc2c(n1)N(C)c1ccccc1C(=O)N2C [15 (LRRK2-IN-1)] | 94 | 69 | 67 | 98
2 | COc1cc(C(=O)N2CCC(N3CCN(C)CC3)CC2)ccc1Nc1ncc2c(n1)N1CCc3cccc(c31)C(=O)N2C [Compound 24] | 42 | 93 | – | –
3 | COc1cc(C(=O)N2CCC(N3CCN(C)CC3)CC2)ccc1Nc1ncc2c(n1)N(C1CCCC1)c1ccccc1C(=O)N2C [Compound 25, 11-cyclopentyl-2-((2-methoxy-4-(4-(4-methylpiperazin-1-yl)piperidine-1-carbonyl)phenyl)amino)-5-methyl-5H-benzo[e]pyrimido[5,4-b][1,4]diazepin-6(11H)-one] | 44 | 78 | 86 | 86
4 | CCOc1cc(C(=O)N2CCC(N3CCN(C)CC3)CC2)ccc1Nc1ncc2c(n1)N(C1CCCC1)c1ccccc1C(=O)N2C [Compound 26] | 63 | 100 | 100 | 100
